Data taken from the supplement of paper PMC10307832.

Tests used:
Assay in all cases: relative viability (nuclei count vs DMSO), 5 days (fraction); higher = more cells survive
Doramapimod + Tozasertib = compound: Cc1ccc(-n2nc(C(C)(C)C)cc2NC(=O)Nc2ccc(OCCN3CCOCC3)c3ccccc23)cc1 [Doramapimod] + Cc1cc(Nc2cc(N3CCN(C)CC3)nc(Sc3ccc(NC(=O)C4CC4)cc3)n2)n[nH]1 [Tozasertib] (partner 0.1 µM)
Method in brief: (§1)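 Values are medians from duplicate plates. Each reflects relative viability, defined as the nuclei count of treated wells over that of vehicle wells. Lung cancer cell lines in 1536-well plates were pin-tool dosed one day after seeding with one drug alone or with a fixed anchor-drug dose plus five library-drug doses (not always all listed) in √10 steps, then fixed, stained and imaged at 4× after 5 days.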

RAF265 + Alpelisib = compound: Cn1c(Nc2ccc(C(F)(F)F)cc2)nc2cc(Oc3ccnc(-c4ncc(C(F)(F)F)[nH]4)c3)ccc21 [RAF265] + Cc1nc(NC(=O)N2CCC[C@H]2C(N)=O)sc1-c1ccnc(C(C)(C)C(F)(F)F)c1 [Alpelisib] (partner 2 µM)
Method in brief: as §1

RAF265 + Olaparib = compound: Cn1c(Nc2ccc(C(F)(F)F)cc2)nc2cc(Oc3ccnc(-c4ncc(C(F)(F)F)[nH]4)c3)ccc21 [RAF265] + O=C(c1cc(Cc2n[nH]c(=O)c3ccccc23)ccc1F)N1CCN(C(=O)C2CC2)CC1 [Olaparib] (partner 8 µM)
Method in brief: as §1

Doramapimod + Pictilisib = compound: Cc1ccc(-n2nc(C(C)(C)C)cc2NC(=O)Nc2ccc(OCCN3CCOCC3)c3ccccc23)cc1 [Doramapimod] + CS(=O)(=O)N1CCN(Cc2cc3nc(-c4cccc5[nH]ncc45)nc(N4CCOCC4)c3s2)CC1 [Pictilisib] (partner 1 µM)
Method in brief: as §1

Question: With UMC-11 as the cell line, how does the relative viability (Doramapimod + Tozasertib; first compound 0.02 µM) read?
Answer: The relative viability was 0.2.

Question: And the relative viability (Doramapimod + Tozasertib; first compound 0.06325 µM)?
Answer: Its relative viability is 0.174.

Question: And the relative viability (Doramapimod + Tozasertib; first compound 0.2 µM)?
Answer: The relative viability was 0.199.

Question: What about the relative viability (Doramapimod + Tozasertib; first compound 0.6325 µM) of the same cell line?
Answer: Its relative viability is 0.195.

Question: And the relative viability (Doramapimod + Tozasertib; first compound 2 µM)?
Answer: The relative viability was 0.205.

Question: What about the relative viability (RAF265 + Alpelisib; first compound 0.01 µM) of the same cell line?
Answer: Its relative viability is 0.972.

Question: And the relative viability (RAF265 + Alpelisib; first compound 0.03162 µM)?
Answer: Its relative viability is 0.981.

Question: And the relative viability (RAF265 + Alpelisib; first compound 0.1 µM)?
Answer: Its relative viability is 0.969.

Question: What about the relative viability (RAF265 + Alpelisib; first compound 0.3162 µM) of the same cell line?
Answer: The relative viability was 1.14.

Question: What about the relative viability (RAF265 + Alpelisib; first compound 1 µM) of the same cell line?
Answer: Its relative viability is 0.937.

Question: And the relative viability (RAF265 + Olaparib; first compound 0.01 µM)?
Answer: The relative viability was 0.408.

Question: And the relative viability (RAF265 + Olaparib; first compound 0.03162 µM)?
Answer: Its relative viability is 0.368.

Question: What about the relative viability (RAF265 + Olaparib; first compound 0.1 µM) of the same cell line?
Answer: Its relative viability is 0.966.

Question: What about the relative viability (RAF265 + Olaparib; first compound 0.3162 µM) of the same cell line?
Answer: The relative viability was 0.31.

Question: What about the relative viability (RAF265 + Olaparib; first compound 1 µM) of the same cell line?
Answer: Its relative viability is 0.329.

Question: What about the relative viability (Doramapimod + Pictilisib; first compound 0.02 µM) of the same cell line?
Answer: The relative viability was 0.726.

Question: And the relative viability (Doramapimod + Pictilisib; first compound 0.06325 µM)?
Answer: The relative viability was 0.759.

Question: And the relative viability (Doramapimod + Pictilisib; first compound 0.2 µM)?
Answer: Its relative viability is 0.726.

Question: What about the relative viability (Doramapimod + Pictilisib; first compound 0.6325 µM) of the same cell line?
Answer: The relative viability was 0.547.

Question: And the relative viability (Doramapimod + Pictilisib; first compound 2 µM)?
Answer: Its relative viability is 0.615.
